Test results from ChEMBL document CHEMBL1201862, “PubChem BioAssay data set” (2004).
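Compound exposure: 48 hours, 5 concentrations, 96-well plates. The concentration for 50% growth inhibition is given as GI50.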 Calls of active or inactive are those of the source. No stated cut-off is given here; in the data, active = GI50 up to about 1.1 µM and inactive = higher.

How the values were obtained:
Experiment in all cases: NCI anticancer screen, dose series, 48 h
[1] = test system: MDA-MB-435
[2] = test system: PC-3
[3] = test system: Hs-578T
[4] = test system: DMS-114
[5] = test system: DLD-1
[6] = test system: DMS-273
[7] = test system: RXF 631
[8] = test system: XF498
[9] = test system: 786-0

Row | Structure (SMILES) | GI50 [1] | GI50 [2] | GI50 [3] | GI50 [4] | GI50 [5] | GI50 [6] | GI50 [7] | GI50 [8] | GI50 [9]
1 | Nc1nc(Cl)nc2c1ncn2C1CCC(CO)O1 (configuration not stated) | > 100 µM (inactive) | > 100 µM (inactive) | > 100 µM (inactive) | – | – | – | – | – | –
2 | O=c1ccc2nc3cc(Br)ccc3sc-2c1 | – | – | – | > 100 µM (inactive) | 82.8 µM (inactive) | > 100 µM (inactive) | – | – | –
3 | CCCCC(=O)c1c(O)nc2sccn2c1=O | > 10 µM (inactive) | > 10 µM (inactive) | > 10 µM (inactive) | – | – | – | – | – | –
4 | Cc1cccc(C(C)C)c1NC(=O)CC1Sc2ccccc2NC1=O (configuration not stated) | – | – | – | 23.4 µM (inactive) | > 100 µM (inactive) | 45.8 µM (inactive) | 85.1 µM (inactive) | > 100 µM (inactive) | –
5 | CSc1nc(Cl)c2c(n1)Sc1ncnn1C2O (configuration not stated) | 4.57 µM (inactive) | 13.6 µM (inactive) | 5.09 µM (inactive) | – | – | – | – | – | 2.66 µM (inactive)
6 | O=C(O)C12CCCC(CCC1)C2 | – | – | – | > 100 µM (inactive) | > 100 µM (inactive) | > 100 µM (inactive) | > 100 µM (inactive) | > 100 µM (inactive) | –
7 | CCCCn1/c(=N/C(=S)N(C)C)ss/c1=N\C(=S)N(C)C | – | – | – | – | > 100 µM (inactive) | > 100 µM (inactive) | – | > 100 µM (inactive) | > 100 µM (inactive)
8 | COC1CCC(O)C(CO)O1 (configuration not stated) | – | – | – | – | > 100 µM (inactive) | – | – | > 100 µM (inactive) | –
9 | Cc1ccc2c(c1)C(=O)N(N(C)C)CC(=O)N2 | – | – | – | > 100 µM (inactive) | > 100 µM (inactive) | > 100 µM (inactive) | – | > 100 µM (inactive) | –
10 | COc1cc(C2c3cc4c(cc3[C@@H](Nc3ccc5c(c3)OCO5)C3COC(=O)[C@H]23)OCO4)cc(OC)c1O (some centres not stated) | – | – | – | – | 1.55 µM (inactive) | 0.105 µM (active) | – | 1.64 µM (inactive) | –
11 | CC1(C)OC2CC(=O)OCC23C1CC(=O)C1(C)C3CCC2(C)C(c3ccoc3)OC(=O)C3OC321 (configuration not stated) | – | – | – | > 125 µM (inactive) | > 125 µM (inactive) | > 125 µM (inactive) | – | > 125 µM (inactive) | –
12 | c1ccc2c(c1)SP1Sc3ccccc3P21 (configuration not stated) | – | – | – | > 79.3 µM (inactive) | > 92.5 µM (inactive) | > 100 µM (inactive) | – | > 100 µM (inactive) | –
13 | COc1ccc(C2CC(c3c(O)ccc4ccccc34)=NN2)cc1OC (configuration not stated) | 2.96 µM (inactive) | 3.54 µM (inactive) | 2.16 µM (inactive) | – | – | – | – | – | –
14 | CC(C)(C)[Si](C)(C)OCC1OC(n2cnc3c(N)ncnc32)CC1O (configuration not stated) | > 100 µM (inactive) | 53.1 µM (inactive) | 55.5 µM (inactive) | – | – | – | – | – | –
15 | CNC(=O)CNC(=O)CCC(=O)N(C)C | > 100 µM (inactive) | > 100 µM (inactive) | > 100 µM (inactive) | – | – | – | – | – | > 100 µM (inactive)
16 | [O-][n+]1c2c([n+]([O-])c3ccccc31)-c1cccc3cccc-2c13 | > 100 µM (inactive) | > 100 µM (inactive) | 32.9 µM (inactive) | – | – | – | – | – | –
17 | CC(C)C[C@@H](NC(=O)[C@@H](Cc1cccc2ccccc12)NC(=O)N1CCOCC1)B(O)O | 20.8 µM (inactive) | > 100 µM (inactive) | 40.5 µM (inactive) | – | – | – | – | – | –
18 | CN(C)CCCNC(=O)N/N=C/c1ccccn1 | – | > 10 µM (inactive) | > 10 µM (inactive) | – | – | – | – | – | –
